{"source": "the supplement of paper PMC10307832", "assay_in_all_cases": "relative viability (nuclei count vs DMSO), 5 days (fraction); higher = more cells survive", "key": {"[1]": {"system": "201T", "outline": "(§1)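 Lung cancer cell lines in 1536-well plates got either a single drug or a fixed anchor-drug dose together with five library-drug doses (not always all listed) in √10 steps, by pin tool, on the day after seeding. Nuclei were counted after 5 days, and relative viability is the treated-to-vehicle ratio of nuclei counts. Values are medians of duplicate plates.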"}, "[2]": {"system": "BEN", "outline": "as §1"}, "[3]": {"system": "EMC-BAC-2", "outline": "as §1"}, "[4]": {"system": "HARA", "outline": "as §1"}, "[5]": {"system": "HCC-44", "outline": "as §1"}, "[6]": {"system": "LCLC-103H", "outline": "as §1"}, "[7]": {"system": "LOU-NH91", "outline": "as §1"}, "[8]": {"system": "NCI-H1993", "outline": "as §1"}, "[9]": {"system": "NCI-H2023", "outline": "as §1"}, "[10]": {"system": "NCI-H2087", "outline": "as §1"}, "[11]": {"system": "NCI-H2126", "outline": "as §1"}, "[12]": {"system": "NCI-H2347", "outline": "as §1"}, "[13]": {"system": "NCI-H23", "outline": "as §1"}, "[14]": {"system": "NCI-H3122", "outline": "as §1"}, "[15]": {"system": "NCI-H441", "outline": "as §1"}, "[16]": {"system": "NCI-H596", "outline": "as §1"}, "[17]": {"system": "NCI-H647", "outline": "as §1"}, "[18]": {"system": "NCI-H650", "outline": "as §1"}, "[19]": {"system": "NCI-H727", "outline": "as §1"}, "[20]": {"system": "NCI-H838", "outline": "as §1"}}, "data": [{"smiles": "COc1cc2nccc(Oc3ccc(NC(=O)Nc4cc(C)on4)c(Cl)c3)c2cc1OC", "note": "[Tivozanib] + C[C@@H](Oc1cc(-c2cnn(C3CCNCC3)c2)cnc1N)c1c(Cl)ccc(F)c1Cl [Crizotinib] (partner 1 µM)", "values": [{"measurement": "relative viability", "setting": "[1]; first compound 0.005 µM", "result": 0.981}, {"measurement": "relative viability", "setting": "[1]; first compound 0.01581 µM", "result": 1.04}, {"measurement": "relative viability", "setting": "[1]; first compound 0.05 µM", "result": 1.06}, {"measurement": "relative viability", "setting": "[1]; first compound 0.1581 µM", "result": 1}, {"measurement": "relative viability", "setting": "[1]; first compound 0.5 µM", "result": 1.04}, {"measurement": "relative viability", "setting": "[2]; first compound 0.005 µM", "result": 0.966}, {"measurement": "relative viability", "setting": "[2]; first compound 0.01581 µM", "result": 0.865}, {"measurement": "relative viability", "setting": "[2]; first compound 0.05 µM", "result": 0.647}, {"measurement": "relative viability", "setting": "[2]; first compound 0.5 µM", "result": 1.01}, {"measurement": "relative viability", "setting": "[3]; first compound 0.005 µM", "result": 0.769}, {"measurement": "relative viability", "setting": "[3]; first compound 0.01581 µM", "result": 0.807}, {"measurement": "relative viability", "setting": "[3]; first compound 0.05 µM", "result": 0.74}, {"measurement": "relative viability", "setting": "[3]; first compound 0.1581 µM", "result": 0.754}, {"measurement": "relative viability", "setting": "[3]; first compound 0.5 µM", "result": 0.791}, {"measurement": "relative viability", "setting": "[4]; first compound 0.005 µM", "result": 0.976}, {"measurement": "relative viability", "setting": "[4]; first compound 0.01581 µM", "result": 1}, {"measurement": "relative viability", "setting": "[4]; first compound 0.05 µM", "result": 1.21}, {"measurement": "relative viability", "setting": "[4]; first compound 0.1581 µM", "result": 1.09}, {"measurement": "relative viability", "setting": "[4]; first compound 0.5 µM", "result": 0.974}, {"measurement": "relative viability", "setting": "[5]; first compound 0.005 µM", "result": 0.743}, {"measurement": "relative viability", "setting": "[5]; first compound 0.01581 µM", "result": 0.787}, {"measurement": "relative viability", "setting": "[5]; first compound 0.05 µM", "result": 0.82}, {"measurement": "relative viability", "setting": "[5]; first compound 0.1581 µM", "result": 0.78}, {"measurement": "relative viability", "setting": "[5]; first compound 0.5 µM", "result": 0.811}, {"measurement": "relative viability", "setting": "[6]; first compound 0.005 µM", "result": 1.04}, {"measurement": "relative viability", "setting": "[6]; first compound 0.01581 µM", "result": 0.952}, {"measurement": "relative viability", "setting": "[6]; first compound 0.05 µM", "result": 1.04}, {"measurement": "relative viability", "setting": "[6]; first compound 0.1581 µM", "result": 1.03}, {"measurement": "relative viability", "setting": "[6]; first compound 0.5 µM", "result": 1.06}, {"measurement": "relative viability", "setting": "[7]; first compound 0.005 µM", "result": 0.723}, {"measurement": "relative viability", "setting": "[7]; first compound 0.01581 µM", "result": 0.737}, {"measurement": "relative viability", "setting": "[7]; first compound 0.05 µM", "result": 0.77}, {"measurement": "relative viability", "setting": "[7]; first compound 0.1581 µM", "result": 0.774}, {"measurement": "relative viability", "setting": "[7]; first compound 0.5 µM", "result": 0.708}, {"measurement": "relative viability", "setting": "[8]; first compound 0.005 µM", "result": 0.764}, {"measurement": "relative viability", "setting": "[8]; first compound 0.01581 µM", "result": 0.852}, {"measurement": "relative viability", "setting": "[8]; first compound 0.05 µM", "result": 0.926}, {"measurement": "relative viability", "setting": "[8]; first compound 0.1581 µM", "result": 0.707}, {"measurement": "relative viability", "setting": "[8]; first compound 0.5 µM", "result": 0.852}, {"measurement": "relative viability", "setting": "[9]; first compound 0.005 µM", "result": 0.555}, {"measurement": "relative viability", "setting": "[9]; first compound 0.01581 µM", "result": 0.717}, {"measurement": "relative viability", "setting": "[9]; first compound 0.05 µM", "result": 0.657}, {"measurement": "relative viability", "setting": "[9]; first compound 0.1581 µM", "result": 0.645}, {"measurement": "relative viability", "setting": "[9]; first compound 0.5 µM", "result": 0.546}, {"measurement": "relative viability", "setting": "[10]; first compound 0.005 µM", "result": 0.797}, {"measurement": "relative viability", "setting": "[10]; first compound 0.01581 µM", "result": 0.862}, {"measurement": "relative viability", "setting": "[10]; first compound 0.05 µM", "result": 0.882}, {"measurement": "relative viability", "setting": "[10]; first compound 0.1581 µM", "result": 0.917}, {"measurement": "relative viability", "setting": "[10]; first compound 0.5 µM", "result": 0.668}, {"measurement": "relative viability", "setting": "[11]; first compound 0.005 µM", "result": 0.965}, {"measurement": "relative viability", "setting": "[11]; first compound 0.01581 µM", "result": 0.946}, {"measurement": "relative viability", "setting": "[11]; first compound 0.05 µM", "result": 1.03}, {"measurement": "relative viability", "setting": "[11]; first compound 0.1581 µM", "result": 0.912}, {"measurement": "relative viability", "setting": "[11]; first compound 0.5 µM", "result": 1.03}, {"measurement": "relative viability", "setting": "[12]; first compound 0.005 µM", "result": 0.578}, {"measurement": "relative viability", "setting": "[12]; first compound 0.01581 µM", "result": 0.679}, {"measurement": "relative viability", "setting": "[12]; first compound 0.05 µM", "result": 0.673}, {"measurement": "relative viability", "setting": "[12]; first compound 0.1581 µM", "result": 0.685}, {"measurement": "relative viability", "setting": "[12]; first compound 0.5 µM", "result": 0.605}, {"measurement": "relative viability", "setting": "[13]; first compound 0.005 µM", "result": 0.544}, {"measurement": "relative viability", "setting": "[13]; first compound 0.01581 µM", "result": 0.541}, {"measurement": "relative viability", "setting": "[13]; first compound 0.05 µM", "result": 0.474}, {"measurement": "relative viability", "setting": "[13]; first compound 0.1581 µM", "result": 0.461}, {"measurement": "relative viability", "setting": "[13]; first compound 0.5 µM", "result": 0.459}, {"measurement": "relative viability", "setting": "[14]; first compound 0.005 µM", "result": 0.236}, {"measurement": "relative viability", "setting": "[14]; first compound 0.01581 µM", "result": 0.266}, {"measurement": "relative viability", "setting": "[14]; first compound 0.05 µM", "result": 0.266}, {"measurement": "relative viability", "setting": "[14]; first compound 0.1581 µM", "result": 0.29}, {"measurement": "relative viability", "setting": "[14]; first compound 0.5 µM", "result": 0.32}, {"measurement": "relative viability", "setting": "[15]; first compound 0.005 µM", "result": 0.688}, {"measurement": "relative viability", "setting": "[15]; first compound 0.01581 µM", "result": 0.676}, {"measurement": "relative viability", "setting": "[15]; first compound 0.05 µM", "result": 0.607}, {"measurement": "relative viability", "setting": "[15]; first compound 0.1581 µM", "result": 0.72}, {"measurement": "relative viability", "setting": "[15]; first compound 0.5 µM", "result": 0.666}, {"measurement": "relative viability", "setting": "[16]; first compound 0.005 µM", "result": 0.947}, {"measurement": "relative viability", "setting": "[16]; first compound 0.01581 µM", "result": 0.903}, {"measurement": "relative viability", "setting": "[16]; first compound 0.05 µM", "result": 0.961}, {"measurement": "relative viability", "setting": "[16]; first compound 0.1581 µM", "result": 0.861}, {"measurement": "relative viability", "setting": "[16]; first compound 0.5 µM", "result": 0.966}, {"measurement": "relative viability", "setting": "[17]; first compound 0.005 µM", "result": 0.925}, {"measurement": "relative viability", "setting": "[17]; first compound 0.01581 µM", "result": 1.1}, {"measurement": "relative viability", "setting": "[17]; first compound 0.05 µM", "result": 1.13}, {"measurement": "relative viability", "setting": "[17]; first compound 0.1581 µM", "result": 1.05}, {"measurement": "relative viability", "setting": "[17]; first compound 0.5 µM", "result": 0.991}, {"measurement": "relative viability", "setting": "[18]; first compound 0.005 µM", "result": 0.596}, {"measurement": "relative viability", "setting": "[18]; first compound 0.01581 µM", "result": 0.906}, {"measurement": "relative viability", "setting": "[18]; first compound 0.05 µM", "result": 0.891}, {"measurement": "relative viability", "setting": "[18]; first compound 0.1581 µM", "result": 0.696}, {"measurement": "relative viability", "setting": "[18]; first compound 0.5 µM", "result": 0.455}, {"measurement": "relative viability", "setting": "[19]; first compound 0.005 µM", "result": 0.72}, {"measurement": "relative viability", "setting": "[19]; first compound 0.01581 µM", "result": 0.843}, {"measurement": "relative viability", "setting": "[19]; first compound 0.05 µM", "result": 0.833}, {"measurement": "relative viability", "setting": "[19]; first compound 0.5 µM", "result": 0.869}, {"measurement": "relative viability", "setting": "[20]; first compound 0.005 µM", "result": 0.886}, {"measurement": "relative viability", "setting": "[20]; first compound 0.01581 µM", "result": 0.82}, {"measurement": "relative viability", "setting": "[20]; first compound 0.05 µM", "result": 0.857}, {"measurement": "relative viability", "setting": "[20]; first compound 0.5 µM", "result": 0.779}]}]}
